Results on three compounds are retold here after article PMC11769347, “Development of Novel Fluticasone/Salmeterol/Tiotropium-Loaded Dry Powder Inhaler and Bioequivalence Assessment to Commercial Products in Rats” (Pharmaceutics, 2025).

Format in all cases: physicochemical
A short description of data set [1]: Dissolution of fine particles less than 5 μm in simulated lung fluid. The note with it: 37 °C, 75 rpm; for dissolved: within 15 min.
Protocol: To collect the fine particles less than 5 μm on a glass fiber filter, abbreviated ACI was used [17, 18]. The micronized FP/SX/TB blend was dispersed at a flow rate of 60 L/min, and 4.0 L of air was withdrawn. The glass fiber filter with collected fine particles was assembled into a filter holder (Copley Scientific, Nottingham, UK). […] The filter holder was placed in a dissolution vessel, and 500 mL of simulated lung fluid was used as dissolution media [19]. The dissolution media was maintained at a temperature of 37 ± 0.5 °C with an agitation speed of 75 rpm. At a predetermined time, 2 mL of the media was collected and diluted with 0.1 M HCl, edetate disodium dihydrate, and methanol to achieve a ratio of 900:50:0.075:50. The diluted solution was filtered through a 0.45 μm PVDC membrane filter and analyzed by HPLC as described in Section 2.5.
Data set [2] is described as follows: Particle size by laser diffraction (HELOS) after air jet milling. As for the experimental part: The drug was supplied into a jet mill at a rate of 10 g/min with injection air and grinding air pressures set at among 1–4 bars. The particle size of the micronized TB was measured using high-resolution laser diffraction spectroscopy (HELOS; Sympatec, Clausthal-Zellerfeld, Germany).

Data set [3] can be described thus: Effect of capsule components on drug stability (degraded compounds by HPLC). Conditions: in various capsules, 60 °C for 2 weeks; % of the initial amount. As for the experimental part: The effect of capsule components on the stability of FP, SX, or TB was investigated. The main materials and gelling agent of the capsule are described in Table 2. Each capsule was packed in an aluminum–aluminum blister and stored at 60 °C for 2 weeks. For comparison, commercial products are stored under the same conditions. Degraded compounds of FP, SX, or TB were analyzed as described in Section 2.5.
Degradation compounds of FP, SX, or TB were quantified using a high-performance liquid chromatography (HPLC) system (Hitachi, Tokyo, Japan) comprising a 5110 pump, 5430 detectors, a 5310 column oven, and 5210 autosamplers. While FP and SX were analyzed together, TB was assessed using a separate set of analytical conditions. Inertsil® ODS-2 column (4.6 mm × 250 mm, 5 μm) was used to analyze the degradation compounds of FP and SX. The powder, equivalent to 2.5 mg of FP and 0.725 mg of SX, was introduced into 5 mL of a mixture consisting of phosphoric acid, methanol, and distilled water in a ratio of 0.05:89.95:10. The mixture solution was vortexed for 30 min and passed through a 0.45 μm membrane filter. Fifty microliter aliquots of the filtered solution were injected and detected at 228 nm. […] Fifteen microliter aliquots of the sample solution were injected into the column at 50 °C and monitored at […] with a flow rate of 1.2 mL/min.

[4] abbreviates: powder without the air jet milling process (as from the manufacturer).

As to `C[N+]1(C)[C@@H]2C[C@@H](OC(=O)C(O)(c3cccs3)c3cccs3)C[C@H]1[C@@H]1O[C@@H]12` [TB, tiotropium bromide], in data set [1], the dissolved entry is listed as “more than 85%”. Further, the particle size in data set [2] (air jet mill condition I: injection air pressure 2 bar, grinding air pressure 1 bar) is on record as 3.1 ± 0.3 μm; in data set [2] (air jet mill condition II: injection air pressure 3 bar, grinding air pressure 2 bar) it was 2.5 ± 0.1 μm; in data set [2] (air jet mill condition III: injection air pressure 4 bar, grinding air pressure 3 bar), 1.4 ± 0.3 μm; in data set [2] (setting [4]), 6.1 ± 0.8 μm.

For `CCC(=O)O[C@]1(C(=O)SCF)[C@H](C)C[C@H]2[C@@H]3C[C@H](F)C4=CC(=O)C=C[C@]4(C)[C@@]3(F)[C@@H](O)C[C@@]21C` [FP, fluticasone propionate], the “total degraded compound of FP” value in data set [3] was “less than 0.7%”. In addition, the maximum dissolution result in data set [1] is reported as “approximately 20%”. The particle size result in data set [2] (setting [4]) is “less than 5 μm”.

`OCc1cc(C(O)CNCCCCCCOCCCCc2ccccc2)ccc1O` (stereo not shown) [SX, salmeterol xinafoate]: the dissolved result in data set [1] is listed as “more than 85%”. Also, the particle size result in data set [2] (setting [4]) was “less than 5 μm”.
